The results in this text go back to patent US7442710B2, “Substituted phenyl methanones” (Hoffman-La Roche Inc., priority 2005, dated 2008).

As a reminder, the IC50 is the point on the concentration scale where inhibition reaches its midpoint. A low value points to inhibition by little substance.

The target of the assay is T1, mGlyT-1b (Mus musculus, UniProt P28571).
T1 construct: host or cells: Flp-in-CHO cells, stably transfected
T1 sequence (P28571 1-651 isoform P28571-2): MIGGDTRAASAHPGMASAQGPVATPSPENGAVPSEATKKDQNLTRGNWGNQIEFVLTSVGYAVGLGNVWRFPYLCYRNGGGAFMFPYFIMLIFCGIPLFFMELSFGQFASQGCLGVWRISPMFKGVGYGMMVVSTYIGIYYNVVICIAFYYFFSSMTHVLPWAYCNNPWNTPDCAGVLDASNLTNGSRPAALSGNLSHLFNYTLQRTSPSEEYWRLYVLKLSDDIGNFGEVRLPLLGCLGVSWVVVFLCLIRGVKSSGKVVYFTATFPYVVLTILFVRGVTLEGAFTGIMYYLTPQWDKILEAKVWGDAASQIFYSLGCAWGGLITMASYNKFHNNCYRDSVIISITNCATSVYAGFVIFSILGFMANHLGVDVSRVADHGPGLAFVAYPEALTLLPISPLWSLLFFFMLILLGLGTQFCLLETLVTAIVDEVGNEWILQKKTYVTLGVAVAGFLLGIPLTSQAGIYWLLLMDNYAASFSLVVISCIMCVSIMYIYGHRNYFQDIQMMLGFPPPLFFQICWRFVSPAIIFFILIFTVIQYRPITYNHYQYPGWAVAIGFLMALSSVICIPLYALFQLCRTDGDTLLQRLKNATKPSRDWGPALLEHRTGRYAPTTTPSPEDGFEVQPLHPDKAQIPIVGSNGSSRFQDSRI
Kind of assay: Glycine uptake inhibition assay (mGlyT-1b). The class given is cell-based. The note with it: [3H]-glycine uptake, Flp-in-CHO cells transfected with mGlyT-1b cDNA. How it is done: DMEM complete medium: Nutrient mixture F-12 (Gibco Life-technologies), fetal bovine serum (FBS) 5%, (Gibco life technologies), Penicillin/Streptomycin 1% (Gibco life technologies), Hygromycin 0.6 mg/ml (Gibco life technologies), Glutamine 1 mM Gibco life technologies).
Uptake buffer (UB): 150 mM NaCl, 10 mM Hepes-Tris, pH 7.4, 1 mM CaCl2, 2.5 mM KCl, 2.5 mM MgSO4, 10 mM (+) D-glucose. Flp-in™-CHO (Invitrogen Cat n° R758-07)cells stably transfected with mGlyT1b cDNA.
Glycine uptake inhibition assay (mGlyT-1b)
On day 1 mammalian cells, (Flp-in™-CHO), transfected with mGlyT-1b cDNA, were plated at the density of 40,000 cells/well in complete F-12 medium, without hygromycin in 96-well culture plates. On day 2, the medium was aspirated and the cells were washed twice with uptake buffer (UB). The cells were then incubated for 20 min at 22° C. with either (i) no potential competitor, (ii) 10 mM non-radioactive glycine, (iii) a concentration of a potential inhibitor. A range of concentrations of the potential inhibitor was used to generate data for calculating the concentration of inhibitor resulting in 50% of the effect (e.g. IC50, the concentration of the competitor inhibiting glycine uptake of 50%). A solution was then immediately added containing [^3H]-glycine 60 nM (11-16 Ci/mmol) and 25 μM non-radioactive glycine. The plates were incubated with gentle shaking and the reaction was stopped by aspiration of the mixture and washing (three times) with ice-cold UB. The cells were lysed with scintillation liquid, shaken 3 hours and the radioactivity in the cells was counted using a scintillation counter.
Consider `CS(=O)(=O)c1ccc(-c2ccccc2)c(C(=O)N2CCc3nc(C(F)(F)F)ccc3C2)c1` [Example 1.8, (4-Methanesulfonyl-biphenyl-2-yl)-(2-trifluoromethyl-7,8-dihydro-5H-[1,6]naphthyridin-6-yl)-methanone], for which the IC50 was 82 nM.
The value for `CC(C)Oc1ccc(S(C)(=O)=O)cc1C(=O)N1CCc2cc(C(F)(F)F)ccc2C1` [Example 1.12, (2-Isopropoxy-5-methanesulfonyl-phenyl)-(6-trifluoromethyl-3,4-dihydro-1H-isoquinolin-2-yl)-methanone] was 46 nM; that for `CS(=O)(=O)c1ccc(N2CCOCC2)c(C(=O)N2CCc3cc(C(F)(F)F)ccc3C2)c1` [Example 1.13, (5-Methanesulfonyl-2-morpholin-4-yl-phenyl)-(6-trifluoromethyl-3,4-dihydro-1H-isoquinolin-2-yl)-methanone] was 321 nM.
With `C[C@H](Oc1ccc(S(C)(=O)=O)cc1C(=O)N1CCc2cc(C(F)(F)F)ccc2C1)C(F)(F)F` [Example 1.14, [5-Methanesulfonyl-2-((S)-2,2,2-trifluoro-1-methyl-ethoxy)-phenyl]-(6-trifluoromethyl-3,4-dihydro-1H-isoquinolin-2-yl)-methanone] the figure was 175 nM; with `CS(=O)(=O)c1ccc(-c2ccccc2)c(C(=O)N2CCc3cc(C(F)(F)F)ccc3C2)c1` [Example 1.15, (4-Methanesulfonyl-biphenyl-2-yl)-(6-trifluoromethyl-3,4-dihydro-1H-isoquinolin-2-yl)-methanone], 168 nM.
With `C[C@H](Oc1ccc(S(C)(=O)=O)cc1C(=O)N1CCc2cc(Cl)ccc2C1)C(F)(F)F` [Example 1.18, (6-Chloro-3,4-dihydro-1H-isoquinolin-2-yl)-[5-methanesulfonyl-2-((S)-2,2,2-trifluoro-1-methyl-ethoxy)-phenyl]-methanone] the figure was 157 nM.
As for `CC(C)Oc1ccc(S(C)(=O)=O)cc1C(=O)N1CCc2cc(Cl)ccc2C1` [Example 1.19, (6-Chloro-3,4-dihydro-1H-isoquinolin-2-yl)-(2-isopropoxy-5-methanesulfonyl-phenyl)-methanone], the IC50 is 359 nM.
With `CC(C)Oc1ccc(S(C)(=O)=O)cc1C(=O)N1CCc2cc(C#N)ccc2C1` [Example 1.20, 2-(2-Isopropoxy-5-methanesulfonyl-benzoyl)-1,2,3,4-tetrahydro-isoquinoline-6-carbonitrile] the figure was 454 nM.
Regarding `CC(C)Oc1ccc(S(C)(=O)=O)cc1C(=O)N1CCc2ccc(Cl)cc2C1` [Example 1.25, (7-Chloro-3,4-dihydro-1H-isoquinolin-2-yl)-(2-isopropoxy-5-methanesulfonyl-phenyl)-methanone], the IC50 was determined as 215 nM.
As to `CC(C)Oc1ccc(S(C)(=O)=O)cc1C(=O)N1CCc2ccc(Cl)c(Cl)c2C1` [Example 1.26, (7,8-Dichloro-3,4-dihydro-1H-isoquinolin-2-yl)-(2-isopropoxy-5-methanesulfonyl-phenyl)-methanone], 163 nM corresponded to half-maximal inhibition (IC50).
The value for `CC(C)Oc1ccc(S(C)(=O)=O)cc1C(=O)N1CCc2cccc(Cl)c2C1` [Example 1.30, (8-Chloro-3,4-dihydro-1H-isoquinolin-2-yl)-(2-isopropoxy-5-methanesulfonyl-phenyl)-methanone] was 344 nM; that for `COc1ccc2c(c1)CCN(C(=O)c1cc(S(C)(=O)=O)ccc1OC(C)C)C2` [Example 1.40, (2-Isopropoxy-5-methanesulfonyl-phenyl)-(6-methoxy-3,4-dihydro-1H-isoquinolin-2-yl)-methanone] was 481 nM.
Regarding `CC(C)Oc1ccc(S(C)(=O)=O)cc1C(=O)N1CCc2c(ccc3c4ccccc4n(C)c23)C1` [Example 1.47, (2-Isopropoxy-5-methanesulfonyl-phenyl)-(11-methyl-1,2,4,11-tetrahydro-pyrido[4,3-a]carbazol-3-yl)-methanone], 159 nM corresponded to half-maximal inhibition (IC50).
The value for `Cc1c2c(c(C)c3c1OCO3)CN(C(=O)c1cc(S(C)(=O)=O)ccc1OC(C)C)CC2` [Example 1.53] was 483 nM.
The value for `CC(C)Sc1ccc(S(C)(=O)=O)cc1C(=O)N1CCc2cc(Cl)ccc2C1` [Example 1.57, (6-Chloro-3,4-dihydro-1H-isoquinolin-2-yl)-(2-isopropylsulfanyl-5-methanesulfonyl-phenyl)-methanone] was 160 nM.
